The values below come from US8372420B2, “Compositions and methods for coating medical implants” (Angiotech International AG, priority 2002, dated 2013).

What all share (format): cell-based
One test deals with E. coli UB1005 C498. The experiment in a line: MIC determination by microtitre broth dilution. The settings on record: for Minimum Inhibitory Concentrations: E. coli UB1005 C498, wt, Gram−, Mueller Hinton broth, 37° C., 24 h. As for the experimental part: (§1) A. MIC assay of various gram negative and positive bacteria MIC assays were conducted essentially as described by Amsterdam, D. 1996. Susceptibility testing of antimicrobials in liquid media, p. 52-111. In Loman, V., ed. Antibiotics in laboratory medicine, 4th ed. Williams and Wilkins, Baltimore, Md.

Test [1] has as its system K. pneumoniae ATCC13883 C238. In words: MIC determination by microtitre broth dilution. The settings on record: for Minimum Inhibitory Concentrations: K. pneumoniae ATCC13883 C238, wt, Gram−, Mueller Hinton broth, 37° C., 24 h. As for the experimental part: as §1
(In general: Dilution methods test growth across graded concentrations, often in twofold steps.)

For test [2], the system named is P. aeruginosa PAE/K799 H187. In words: MIC determination by microtitre broth dilution. Conditions: for Minimum Inhibitory Concentrations: P. aeruginosa PAE/K799 H187, wt, Gram−, Mueller Hinton broth, 37° C., 24 h. As for the experimental part:
as §1

A further test relates to S. aureus ATCC25923 C622. The experiment in a line: MIC determination by microtitre broth dilution. Conditions: S. aureus ATCC25923 C622, wt, Gram+; Mueller Hinton broth, 37° C., 24 h. As for the experimental part: as §1
For another test, the system named is S. epidermidis C621. The experiment in a line: MIC determination by microtitre broth dilution. Conditions: S. epidermidis C621, wt, Gram+; Mueller Hinton broth, 37° C., 24 h. As for the experimental part: as §1
In another test the test system is S. pyogenes C721. The experiment in a line: MIC determination by microtitre broth dilution. The settings on record: S. pyogenes C721, wt, Gram+; Todd Hewitt broth, 37° C., 24 h. As for the experimental part:
as §1

Test [3] deals with organisms known to cause vascular access catheter-related infections. The experiment in a line: Antibacterial activity of anticancer agents.

With Cisplatin, the “Minimum Inhibitory Concentrations” value in the test with E. coli UB1005 C498 is given as “N”; in test [1], “N”; in test [2], 10^−4 Molar; in the test with S. aureus ATCC25923 C622, “N”; with S. epidermidis C621, “N”; with S. pyogenes C721, “N”. Also, the “activity against Pseudomonas aeruginosa” value in test [2] is given as “some activity”. Also, in test [3], the “antibacterial activity against the organisms known to cause vascular access catheter-related infections” value (shortened to “antibacterial activity”) is “did not have antibacterial activity”.

On to `Nc1ncnc2c1ccn2[C@@H]1O[C@H](CO)[C@@H](O)[C@H]1O` [tubercidin], for which the “Minimum Inhibitory Concentrations” value (with E. coli UB1005 C498; in test [1]; in test [2]; with S. aureus ATCC25923 C622; in the test with S. epidermidis C621; in the test with S. pyogenes C721) was “N” throughout. In addition, in test [3], the “antibacterial activity” value was “did not have antibacterial activity”.

As for `CC(=O)O[C@H]1C(=O)[C@@]2(C)[C@H]([C@H](OC(=O)c3ccccc3)[C@]3(O)C[C@H](OC(=O)[C@H](O)[C@@H](NC(=O)c4ccccc4)c4ccccc4)C(C)=C1C3(C)C)[C@]1(OC(C)=O)CO[C@@H]1C[C@@H]2O` [paclitaxel], the “antibacterial activity” value in test [3] was “did not have antibacterial activity”.

For the compound `Sc1ncnc2nc[nH]c12` [6-mercaptopurine], the “Minimum Inhibitory Concentrations” value (with E. coli UB1005 C498; in test [1]; in test [2]; with S. aureus ATCC25923 C622; in the test with S. epidermidis C621; in the test on S. pyogenes C721) was “N” throughout. Further, the “antibacterial activity” value in test [3] is on record as “did not have antibacterial activity”.

As to `O=C1c2c(O)ccc(O)c2C(=O)c2c(NCCNCCO)ccc(NCCNCCO)c21` [mitoxantrone, Mitoxantrone], in the test on E. coli UB1005 C498, the “activity against Escheridia coli” value is listed as “have activity”. Further, the “Minimum Inhibitory Concentrations” value was 10^−5 Molar in the test on E. coli UB1005 C498; 10^−6 Molar in test [1]; 10^−5 Molar in test [2]; 10^−5 Molar with S. aureus ATCC25923 C622; 10^−5 Molar in the test on S. epidermidis C621; 10^−6 Molar with S. pyogenes C721. The “activity against Pseudomonas aeruginosa” value in test [2] is reported as “have activity”.

`O=c1[nH]cc(F)c(=O)[nH]1` [5-fluorouracil, 5-Fluorouracil]: the “activity against Escheridia coli” value with E. coli UB1005 C498 is “have activity”. Further, the “Minimum Inhibitory Concentrations” value with E. coli UB1005 C498 was 10^−6 Molar; in test [1], 10^−6 Molar; in test [2], 10^−5 Molar; in the test on S. aureus ATCC25923 C622 it was 10^−7 Molar; with S. epidermidis C621 it was 10^−7 Molar; in the test on S. pyogenes C721, 10^−4 Molar. For the same compound, in test [2], the “activity against Pseudomonas aeruginosa” value was “have activity”.

Take `CN(Cc1cnc2nc(N)nc(N)c2n1)c1ccc(C(=O)N[C@@H](CCC(=O)O)C(=O)O)cc1` [methotrexate, Methotrexate]: the “Minimum Inhibitory Concentrations” value with E. coli UB1005 C498 is listed as “N”; in test [1], 10^−6 Molar; in test [2] it was “N”; with S. aureus ATCC25923 C622, 10^−5 Molar; in the test with S. epidermidis C621, “N”; in the test on S. pyogenes C721 it was 10^−6 Molar. For the same compound, the “activity against Klebsiella pneumoniae” value in test [1] was “activity”.

As for `COc1cccc2c1C(=O)c1c(O)c3c(c(O)c1C2=O)C[C@@](O)(C(=O)CO)C[C@@H]3O[C@H]1C[C@H](N)[C@H](O)[C@H](C)O1` [doxorubicin, Doxorubicin], the “activity against Escheridia coli” value in the test on E. coli UB1005 C498 is “have activity”. For the same compound, the “Minimum Inhibitory Concentrations” value in the test with E. coli UB1005 C498 is given as 10^−4 Molar; in test [1] it was 10^−6 Molar; in test [2] it was 10^−5 Molar; in the test on S. aureus ATCC25923 C622, 10^−5 Molar; in the test with S. epidermidis C621, 10^−6 Molar; in the test on S. pyogenes C721 it was 10^−7 Molar. The “activity against Pseudomonas aeruginosa” value in test [2] was “have activity”.

With `NC(=O)NO` [hydroxyurea], the “Minimum Inhibitory Concentrations” value is on record as “N” in the test with E. coli UB1005 C498; “N” in test [1]; 10^−4 Molar in test [2]; “N” in the test on S. aureus ATCC25923 C622; “N” with S. epidermidis C621; 10^−4 Molar with S. pyogenes C721. The “activity against Pseudomonas aeruginosa” value in test [2] was “some activity”. Further, the “antibacterial activity” value in test [3] was “did not have antibacterial activity”.

For `CC[C@@]1(O)C(=O)OCc2c1cc1n(c2=O)Cc2cc3ccccc3nc2-1` [camptothecin, Camptothecin], the “Minimum Inhibitory Concentrations” value is on record as “N” in the test on E. coli UB1005 C498; “N” in test [1]; “N” in test [2]; “N” in the test with S. aureus ATCC25923 C622; 10^−4 Molar with S. epidermidis C621; “N” with S. pyogenes C721. Moreover, the “antibacterial activity” value in test [3] is “did not have antibacterial activity”.

As to `COc1cc([C@@H]2c3cc4c(cc3[C@@H](O[C@@H]3O[C@@H]5CO[C@@H](C)O[C@H]5[C@H](O)[C@H]3O)[C@H]3COC(=O)[C@H]23)OCO4)cc(OC)c1O` [etoposide, Etoposide], the “Minimum Inhibitory Concentrations” value in the test on E. coli UB1005 C498 is “N”; in test [1] it was 10^−5 Molar; in test [2], “N”; in the test on S. aureus ATCC25923 C622, 10^−5 Molar; in the test with S. epidermidis C621, 10^−6 Molar; in the test on S. pyogenes C721 it was 10^−5 Molar.

On to `Nc1ccn([C@@H]2O[C@H](CO)[C@@H](O)[C@@H]2O)c(=O)n1` [Cytarabine], for which the “Minimum Inhibitory Concentrations” value (with E. coli UB1005 C498; in test [1]; in test [2]; with S. aureus ATCC25923 C622; in the test with S. epidermidis C621; in the test on S. pyogenes C721) was “N” each time. Moreover, the “antibacterial activity” value in test [3] is listed as “did not have antibacterial activity”.

With `Sc1ncc2[nH]cnc2n1` [2-mercaptopurine], the “Minimum Inhibitory Concentrations” value (in the test on E. coli UB1005 C498; in test [1]; in test [2]; in the test on S. aureus ATCC25923 C622; in the test on S. epidermidis C621; in the test with S. pyogenes C721) was “N” in each case. The “antibacterial activity” value in test [3] is recorded as “did not have antibacterial activity”.
